Assay results reported in US9371320B2, “Heterocyclic compound” (TAKEDA PHARMACEUTICAL COMPANY LIMITED, priority 2012, dated 2016).

Columns and labels:
[1] = molecular target: T1, JAK1 (Homo sapiens, UniProt P23458); experiment: JAK1 enzyme inhibition test (LANCE method); assay type: biochemical; conditions: for inhibition at 1 µM: test compound 1 μM, read-out: Inhibitory rate (%) JAK1 1 μM
T1 construct: purchased Invitrogen
How it was run: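 Reactions ran 1 h at room temperature in HEPES pH 7.5/MgCl2 buffer, with ATP solution at 150 μM and JAK1 and ULight peptide solutions at 187.5 ng/mL and 300 nM. Reactions were stopped with EDTA, and phosphorylation was read by Eu antibody time-resolved fluorescence at 665 nm. Inhibition was scaled to a no-enzyme control as 100%.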

[2] = molecular target: T2, Tyk2 (Homo sapiens, UniProt P29597); experiment: Tyk2 enzyme inhibition test (LANCE method); assay type: biochemical; conditions: test compound 1 μM; read-out: Inhibitory rate (%) Tyk2 1 μM
T2 construct: purchased Invitrogen
How it was run: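 LANCE TR-FRET read-out (ex 340/em 665 nm, 100 μs delay) of ULight-JAK1 phosphorylation, with no-enzyme wells as 100% inhibition. Reaction run 1 h at room temperature in pH 7.5 HEPES buffer; enzyme 375 ng/mL, substrate 300 nM and ATP 30 μM are solution concentrations before mixing.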

T1 sequence (P23458 whole entry): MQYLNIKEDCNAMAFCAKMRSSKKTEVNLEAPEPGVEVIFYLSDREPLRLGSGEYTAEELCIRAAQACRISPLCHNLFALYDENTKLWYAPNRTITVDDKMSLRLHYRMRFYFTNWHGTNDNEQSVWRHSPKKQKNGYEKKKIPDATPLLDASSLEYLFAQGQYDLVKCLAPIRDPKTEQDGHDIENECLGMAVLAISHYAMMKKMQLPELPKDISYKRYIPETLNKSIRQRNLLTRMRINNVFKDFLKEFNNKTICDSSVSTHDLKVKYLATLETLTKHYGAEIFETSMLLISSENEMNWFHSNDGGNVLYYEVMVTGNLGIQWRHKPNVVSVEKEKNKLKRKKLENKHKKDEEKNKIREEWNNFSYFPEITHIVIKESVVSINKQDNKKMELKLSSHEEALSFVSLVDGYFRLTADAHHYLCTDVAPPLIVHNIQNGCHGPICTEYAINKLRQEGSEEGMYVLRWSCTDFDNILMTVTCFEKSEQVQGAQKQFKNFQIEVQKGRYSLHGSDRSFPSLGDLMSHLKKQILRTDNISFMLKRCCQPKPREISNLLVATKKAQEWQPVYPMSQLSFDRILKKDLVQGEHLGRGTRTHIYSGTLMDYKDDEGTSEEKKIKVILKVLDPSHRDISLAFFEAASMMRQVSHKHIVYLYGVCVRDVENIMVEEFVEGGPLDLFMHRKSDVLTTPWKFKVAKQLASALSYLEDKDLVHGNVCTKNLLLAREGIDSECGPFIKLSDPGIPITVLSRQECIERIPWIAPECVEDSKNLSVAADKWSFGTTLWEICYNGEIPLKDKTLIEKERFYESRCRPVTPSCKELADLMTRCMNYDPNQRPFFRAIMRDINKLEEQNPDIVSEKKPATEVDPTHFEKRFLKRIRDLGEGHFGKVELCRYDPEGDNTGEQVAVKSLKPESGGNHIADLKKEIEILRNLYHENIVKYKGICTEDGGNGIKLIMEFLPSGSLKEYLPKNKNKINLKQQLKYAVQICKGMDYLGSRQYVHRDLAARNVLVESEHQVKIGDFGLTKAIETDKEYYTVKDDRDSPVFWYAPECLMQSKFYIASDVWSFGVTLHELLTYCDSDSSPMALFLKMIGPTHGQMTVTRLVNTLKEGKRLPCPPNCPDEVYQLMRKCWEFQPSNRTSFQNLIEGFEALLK
T2 sequence (P29597 whole entry): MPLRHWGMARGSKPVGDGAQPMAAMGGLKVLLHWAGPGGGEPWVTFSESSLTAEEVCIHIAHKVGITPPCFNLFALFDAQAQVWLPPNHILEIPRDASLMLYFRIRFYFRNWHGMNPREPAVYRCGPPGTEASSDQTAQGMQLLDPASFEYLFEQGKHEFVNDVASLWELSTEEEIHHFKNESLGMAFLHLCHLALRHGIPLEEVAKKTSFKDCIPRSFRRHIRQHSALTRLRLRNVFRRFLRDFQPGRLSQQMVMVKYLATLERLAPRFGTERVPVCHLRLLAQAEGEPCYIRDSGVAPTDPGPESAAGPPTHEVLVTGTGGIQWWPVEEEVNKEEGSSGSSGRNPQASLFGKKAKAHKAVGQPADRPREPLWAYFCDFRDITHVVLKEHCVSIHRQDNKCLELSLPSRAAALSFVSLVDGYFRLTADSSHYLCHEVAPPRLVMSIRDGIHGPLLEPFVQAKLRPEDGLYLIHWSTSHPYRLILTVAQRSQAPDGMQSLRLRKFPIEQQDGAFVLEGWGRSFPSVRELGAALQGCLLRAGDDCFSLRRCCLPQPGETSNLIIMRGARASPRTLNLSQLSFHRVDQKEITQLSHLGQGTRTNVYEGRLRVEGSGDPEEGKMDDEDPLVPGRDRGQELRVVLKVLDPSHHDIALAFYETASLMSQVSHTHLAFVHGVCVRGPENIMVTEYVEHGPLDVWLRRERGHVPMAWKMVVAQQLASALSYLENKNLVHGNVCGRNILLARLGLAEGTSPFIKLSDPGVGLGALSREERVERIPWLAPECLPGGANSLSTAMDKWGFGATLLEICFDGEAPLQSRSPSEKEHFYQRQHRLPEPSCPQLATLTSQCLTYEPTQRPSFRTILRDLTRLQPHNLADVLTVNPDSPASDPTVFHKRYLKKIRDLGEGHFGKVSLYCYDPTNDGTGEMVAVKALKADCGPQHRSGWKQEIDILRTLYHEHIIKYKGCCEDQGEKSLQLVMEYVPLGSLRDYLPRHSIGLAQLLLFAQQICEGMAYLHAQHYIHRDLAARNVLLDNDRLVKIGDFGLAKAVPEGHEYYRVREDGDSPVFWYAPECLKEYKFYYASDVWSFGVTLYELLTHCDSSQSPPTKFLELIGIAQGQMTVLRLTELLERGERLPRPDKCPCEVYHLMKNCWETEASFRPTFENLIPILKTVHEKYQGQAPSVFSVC

SMILES | inhibition at 1 µM [1] [%] | inhibition at 1 µM [2] [%] | inhibition at 10 µM ([1]; test compound 10 μM (Ex. 182-220), beside Tyk2 1 μM, read-out: Inhibitory rate (%) JAK1 10 μM) [%]
NS(=O)(=O)c1ccc(-c2cn(C3CCOC3)c3cc[nH]c(=O)c23)cc1 (stereo not drawn) [Example 18, 4-(4-oxo-1-(tetrahydrofuran-3-yl)-4,5-dihydro-1H-pyrrolo[3,2-c]pyridin-3-yl)benzenesulfonamide] | 93 | 80 | –
O=c1[nH]ccc2c1c(Nc1ccccc1)nn2C1CCCC1 [Example 283, 3-anilino-1-cyclopentyl-1,5-dihydro-4H-pyrazolo[4,3-c]pyridin-4-one] | 98 | 93 | –
N#Cc1c[nH]c(=O)c2c(-c3cccc(CC(N)=O)c3)cn(C3CCCC3)c12 [Example 110, 2-(3-(7-cyano-1-cyclopentyl-4-oxo-4,5-dihydro-1H-pyrrolo[3,2-c]pyridin-3-yl)phenyl)acetamide] | 46 | 91 | –
N#Cc1cccc(F)c1-n1nc(-c2ccc(N3CCOCC3)cc2)c2c(=O)[nH]ccc21 [Example 305, 3-fluoro-2-(3-(4-(morpholin-4-yl)phenyl)-4-oxo-4,5-dihydro-1H-pyrazolo[4,3-c]pyridin-1-yl)benzonitrile] | 93 | 99 | –
O=c1[nH]ccc2c1c(-c1cn[nH]c1)nn2-c1c(F)cccc1F [Example 151, 1-(2,6-difluorophenyl)-3-(1H-pyrazol-4-yl)-1,5-dihydro-4H-pyrazolo[4,3-c]pyridin-4-one] | 98 | 98 | –
O=C1COCCN1c1ccc(-c2nn(-c3c(F)cccc3F)c3cc[nH]c(=O)c23)cc1 [Example 304, 1-(2,6-difluorophenyl)-3-(4-(3-oxomorpholin-4-yl)phenyl)-1,5-dihydro-4H-pyrazolo[4,3-c]pyridin-4-one] | 97 | 99 | –
N#Cc1c[nH]c(=O)c2c(-c3cccc(C(N)=O)c3)cn(C3CCCC3)c12 [Example 89, 3-(7-cyano-1-cyclopentyl-4-oxo-4,5-dihydro-1H-pyrrolo[3,2-c]pyridin-3-yl)benzamide] | 64 | 94 | –
COc1ccccc1-c1nn(C2CCCC2)c2cc[nH]c(=O)c12 [Example 48, 1-cyclopentyl-3-(2-methoxyphenyl)-1,5-dihydro-4H-pyrazolo[4,3-c]pyridin-4-one] | 3 | 7 | –
NC(=O)Cc1ccc(-c2nn(-c3c(F)cccc3F)c3c(Br)c[nH]c(=O)c23)cc1 [Example 112, 2-(4-(7-bromo-1-(2,6-difluorophenyl)-4-oxo-4,5-dihydro-1H-pyrazolo[4,3-c]pyridin-3-yl)phenyl)acetamide] | 89 | 98 | –
O=c1[nH]ccc2c1c(-c1ccc3c(c1)OCO3)nn2C1CCCC1 [Example 49, 3-(1,3-benzodioxol-5-yl)-1-cyclopentyl-1,5-dihydro-4H-pyrazolo[4,3-c]pyridin-4-one] | 85 | 89 | –
CNC(=O)Cc1cccc(-c2nn(-c3c(F)cccc3F)c3cc[nH]c(=O)c23)c1 [Example 253, 2-(3-(1-(2,6-difluorophenyl)-4-oxo-4,5-dihydro-1H-pyrazolo[4,3-c]pyridin-3-yl)phenyl)-N-methylacetamide] | 87 | 98 | –
COC(=O)c1c[nH]c(=O)c2c(-c3ccc(C(N)=O)cc3)cn(C3CCCC3)c12 [Example 29, methyl 3-(4-carbamoylphenyl)-1-cyclopentyl-4-oxo-4,5-dihydro-1H-pyrrolo[3,2-c]pyridine-7-carboxylate] | 14 | 83 | –
O=c1[nH]ccc2c1c(-c1cccc(CO)c1)nn2-c1c(F)cccc1F [Example 278, 1-(2,6-difluorophenyl)-3-(3-(hydroxymethyl)phenyl)-1,5-dihydro-4H-pyrazolo[4,3-c]pyridin-4-one-] | 92 | 98 | –
CN(C)Cc1cccc(-c2nn(-c3c(F)cccc3F)c3cc[nH]c(=O)c23)c1 [Example 258, 1-(2,6-difluorophenyl)-3-(3-((dimethylamino)methyl)phenyl)-1,5-dihydro-4H-pyrazolo[4,3-c]pyridin-4-one] | 43 | 88 | –
NC(=O)c1cc(-c2cn(C3CCCC3)c3c(C(N)=O)c[nH]c(=O)c23)cs1 [Example 62, 3-(5-carbamoyl-3-thienyl)-1-cyclopentyl-4-oxo-4,5-dihydro-1H-pyrrolo[3,2-c]pyridine-7-carboxamide] | 69 | 81 | –
O=c1[nH]ccc2c1c(-c1ccc(N3CCOCC3)cc1)nn2C1CCCCC1(F)F (stereo not drawn) [Example 317, 1-(2,2-difluorocyclohexyl)-3-(4-(morpholin-4-yl)phenyl)-1,5-dihydro-4H-pyrazolo[4,3-c]pyridin-4-one] | 96 | 99 | –
NC(=O)c1cc(F)cc(-c2nn(-c3c(F)cccc3F)c3c(Cl)c[nH]c(=O)c23)c1 [Example 270, 3-(7-chloro-1-(2,6-difluorophenyl)-4-oxo-4,5-dihydro-1H-pyrazolo[4,3-c]pyridin-3-yl)-5-fluorobenzamide] | 0 | 69 | –
O=c1[nH]ccc2c1c(-c1ccc(N3CCOCC3)cc1)nn2-c1c(F)cc(F)cc1F [Example 308, 3-(4-(morpholin-4-yl)phenyl)-1-(2,4,6-trifluorophenyl)-1,5-dihydro-4H-pyrazolo[4,3-c]pyridin-4-one] | 91 | 98 | –
N#Cc1cccc(F)c1-n1nc(-c2cn[nH]c2)c2c(=O)[nH]ccc21 [Example 315, 3-fluoro-2-(4-oxo-3-(1H-pyrazol-4-yl)-4,5-dihydro-1H-pyrazolo[4,3-c]pyridin-1-yl)benzonitrile] | 97 | 98 | –
O=c1[nH]cc(Cl)c2c1c(-c1cccc(OCCO)c1)nn2-c1c(F)cccc1F [Example 168, 7-chloro-1-(2,6-difluorophenyl)-3-(3-(2-hydroxyethoxyl)phenyl)-1,5-dihydro-4H-pyrazolo[4,3-c]pyridin-4-one] | 46 | 97 | –
CN(C)C(=O)c1cc(-c2nn(C3CCCC3)c3cc[nH]c(=O)c23)cs1 [Example 286, 4-(1-cyclopentyl-4-oxo-4,5-dihydro-1H-pyrazolo[4,3-c]pyridin-3-yl)-N,N-dimethylthiophene-2-carboxamide] | 98 | 97 | –
CCC(COC)n1cc(-c2ccc(S(N)(=O)=O)cc2)c2c(=O)[nH]ccc21 (stereo not drawn) [Example 17, 4-(1-(1-methoxybutan-2-yl)-4-oxo-4,5-dihydro-1H-pyrrolo[3,2-c]pyridin-3-yl)benzenesulfonamide] | 87 | 69 | –
CNC(=O)c1cc(-c2cn(C3CCCC3)c3c(C#N)c[nH]c(=O)c23)cs1 [Example 108, 4-(7-cyano-1-cyclopentyl-4-oxo-4,5-dihydro-1H-pyrrolo[3,2-c]pyridin-3-yl)-N-methylthiophene-2-carboxamide] | 99 | 100 | –
Cn1cc(-c2nn(-c3c(F)cccc3F)c3c(Cl)c[nH]c(=O)c23)cn1 [Example 189, 7-chloro-1-(2,6-difluorophenyl)-3-(1-methyl-1H-pyrazoI-4-yl)-1,5-dihydro-4H-pyrazolo[4,3-c]pyridin-4-one] | – | 100 | 92
N#Cc1c[nH]c(=O)c2c(-c3ccc(OCC(N)=O)cc3)cn(C3CCCC3)c12 [Example 120, 2-(4-(7-cyano-1-cyclopentyl-4-oxo-4,5-dihydro-1H-pyrrolo[3,2-c]pyridin-3-yl)phenoxy)acetamide] | 88 | 98 | –
CS(=O)(=O)N1CCN(c2ccc(-c3nn(-c4c(F)cccc4F)c4cc[nH]c(=O)c34)cc2)CC1 [Example 311, 1-(2,6-difluorophenyl)-3-(4-(4-(methylsulfonyl)piperazin-1-yl)phenyl)-1,5-dihydro-4H-pyrazolo[4,3-c]pyridin-4-one] | 95 | 99 | –
O=c1[nH]ccc2c1c(-c1cccc(CN3CCCC3)c1)nn2-c1c(F)cccc1F [Example 288, 1-(2,6-difluorophenyl)-3-(3-(pyrrolidin-1-ylmethyl)phenyl)-1,5-dihydro-4H-pyrazolo[4,3-c]pyridin-4-one] | 55 | 94 | –
CCC(COC)n1cc(-c2ccc(C(N)=O)cc2)c2c(=O)[nH]ccc21 (stereo not drawn) [Example 26, 4-(1-(1-methoxybutan-2-yl)-4-oxo-4,5-dihydro-1H-pyrrolo[3,2-c]pyridin-3-yl)benzamide] | 20 | 41 | –
COC(=O)c1c[nH]c(=O)c2c(-c3csc(C(N)=O)c3)cn(C3CCCC3)c12 [Example 34, methyl 3-(5-carbamoyl-3-thienyl)-1-cyclopentyl-4-oxo-4,5-dihydro-1H-pyrrolo[3,2-c]pyridine-7-carboxylate] | 92 | 99 | –
CCOC(=O)c1ccc(-c2nn(-c3c(F)cccc3F)c3cc[nH]c(=O)c23)cn1 [Example 259, ethyl 5-(1-(2,6-difluorophenyl)-4-oxo-4,5-dihydro-1H-pyrazolo[4,3-c]pyridin-3-yl)pyridine-2-carboxylate] | 59 | 81 | –
